Results as given in PMC4804318 (Pharmacology Research & Perspectives, 2016).

Molecular target: T1, human AT1R (Homo sapiens, UniProt P30556)
T1 sequence (P30556 1-359): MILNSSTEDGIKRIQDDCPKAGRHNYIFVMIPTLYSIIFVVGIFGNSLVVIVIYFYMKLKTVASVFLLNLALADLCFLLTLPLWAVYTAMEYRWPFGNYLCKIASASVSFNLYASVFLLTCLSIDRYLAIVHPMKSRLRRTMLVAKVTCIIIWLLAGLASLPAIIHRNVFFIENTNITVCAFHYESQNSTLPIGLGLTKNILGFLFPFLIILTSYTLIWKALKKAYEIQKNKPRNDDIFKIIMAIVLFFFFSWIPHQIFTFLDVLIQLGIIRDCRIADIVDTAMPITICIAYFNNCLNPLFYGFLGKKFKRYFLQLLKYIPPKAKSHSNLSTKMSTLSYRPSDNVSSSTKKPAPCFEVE
Type: cell-based
Details: CellKey assay, Fig. 1C

Substance: [Sar^1, Cys^5, Leu^8]‐AngII
- potency at β‐arrestin stimulation relative to AngII and SII: less potent than AngII but more potent than SII
